In brackets after ≈: the same amount, converted by molar mass.
Tests used:
MIA PaCa-2 = experiment: Cytotoxicity against human pancreatic carcinoma MIA PaCa-2 cell lines; format: functional; conditions: read-out: ED50 (the source's name)
MCF7 = experiment: Cytotoxicity against human breast carcinoma MCF-7 cell lines; format: functional; conditions: read-out: ED50 (the source's name)
[1] = Lethality in Brine shrimp lethality test; conditions: artemia
PC-3 = experiment: Cytotoxicity against human prostate adenocarcinoma PC-3 cell lines; format: functional; conditions: read-out: ED50 (the source's name)
A498 = experiment: Cytotoxicity against human kidney carcinoma A-498cell lines; format: functional; conditions: read-out: ED50 (the source's name)
A549 = experiment: Cytotoxicity against human lung carcinoma A-549 cell lines; format: functional; conditions: read-out: ED50 (the source's name)
HT-29 = experiment: Cytotoxicity against human colon adenocarcinoma HT-29 cell lines; format: functional; conditions: read-out: ED50 (the source's name)

CCCCCCCCCCCCC(O)[C@@H]1CC[C@H]([C@H](O)CCCCCCCCCCC(O)CC2=C[C@H](C)OC2=O)O1 (single isomer, unassigned)
EC50 (MIA PaCa-2): 1.5 ng/mL (≈ 2.58 nM)
EC50 (MCF7): 3150 ng/mL (≈ 5420 nM)
LC50 [1]: 207 ng/mL (≈ 356 nM)
EC50 (PC-3): 2360 ng/mL (≈ 4060 nM)

CCCCCCCCCCCCC(O)C1CC[C@H]([C@H](O)CCCCCCCCCCC(O)CC2=C[C@H](C)OC2=O)O1 (single isomer, unassigned)
EC50 (A498): 4160 ng/mL (≈ 7160 nM)
EC50 (A549): 3.41 ng/mL (≈ 5.87 nM)
EC50 (HT-29): 1270 ng/mL (≈ 2190 nM)
EC50 (MIA PaCa-2): 15.3 ng/mL (≈ 26.3 nM)
EC50 (MCF7): 15.8 ng/mL (≈ 27.2 nM)
LC50 [1]: 346 ng/mL (≈ 596 nM)
EC50 (PC-3): 1420 ng/mL (≈ 2440 nM)

CCCCCCCCCCCCC(O)[C@H]1CC[C@H]([C@H](O)CCCCCCCCCCC(O)CC2=C[C@H](C)OC2=O)O1 (single isomer, unassigned)
EC50 (A498): 66.7 ng/mL (≈ 115 nM)
EC50 (A549): 0.00316 ng/mL (≈ 0.00544 nM)
EC50 (MIA PaCa-2): 51.8 ng/mL (≈ 89.2 nM)
EC50 (MCF7): 5400 ng/mL (≈ 9300 nM)
LC50 [1]: 183 ng/mL (≈ 315 nM)
EC50 (PC-3): 8410 ng/mL (≈ 14500 nM)

COc1cccc2c1C(=O)c1c(O)c3c(c(O)c1C2=O)C[C@@](O)(C(=O)CO)C[C@@H]3O[C@H]1C[C@H](N)[C@H](O)[C@H](C)O1 [DOXORUBICIN]
EC50 (A498): 2.26 ng/mL (≈ 4.16 nM)
EC50 (A549): 3.99 ng/mL (≈ 7.34 nM)
EC50 (HT-29): 24.3 ng/mL (≈ 44.7 nM)
EC50 (MIA PaCa-2): 1.36 ng/mL (≈ 2.5 nM)
EC50 (MCF7): 420 ng/mL (≈ 773 nM)
EC50 (PC-3): 34.9 ng/mL (≈ 64.2 nM)
